The subject of assay [1] is influenza virus A/Udorn/72 H3N2 strain. The assay is described as follows: influenza focus-forming assay in 293 cells. The assay is classed as cell-based. To be noted: for antiviral activity compared with KIN101 (viral titer): FIG. 3A; for pIC50: HEK293, 24 h, read-out: Flu IC50; for viral infection of 293 cells (decrease in foci, dose dependence): FIGS. 3A, 3B.
A further assay deals with DNV type 2 strain. The assay is described as follows: DNV focus-forming assay in Huh7 cells. To be noted: Dengue virus, Huh-7; Huh7 cells, treatment after infection, 48 hours replication. The assay is classed as cell-based, Dengue virus.

SMILES strings stand for the structures. pIC50: −log10 of the molar value.

Consider `CS(=O)(=O)Oc1ccc2c(=O)c(-c3ccc(C(F)(F)F)cc3)coc2c1` [KIN263], for which, in assay [1], the “antiviral activity compared with KIN101 (viral titer)” value is recorded as “improved on this antiviral activity” and the pIC50 was 6.10. This molecule had a pIC50 in the assay with DNV type 2 strain of 5.86.
In the case of `CS(=O)(=O)Oc1ccc2c(=O)c(-c3cccc4ccccc34)coc2c1` [KIN267], the “antiviral activity compared with KIN101 (viral titer)” value in assay [1] was “improved on this antiviral activity”.
With `CS(=O)(=O)Oc1ccc2c(=O)c(-c3ccc(OC(F)F)cc3)coc2c1` [KIN378], the pIC50 is 6.22 in assay [1] and less than 5.30 with DNV type 2 strain.
For `CN(c1ccc2c(=O)c(-c3ccc(OCC(F)(F)F)cc3)coc2c1)S(C)(=O)=O` [KIN857], in that order: 7.19 and 6.74.
`CC(C)(C)c1ccc(-c2coc3cc(OCC(=O)N4CCOCC4)ccc3c2=O)cc1` [KIN306]: in assay [1], the “antiviral activity compared with KIN101 (viral titer)” value is recorded as “improved on this antiviral activity” and the negative logarithm of the IC50 (pIC50) was 6.06. Further, the pIC50 with DNV type 2 strain is 5.55.
In the case of `CN(c1ccc2c(=O)c(-c3ccc(OCC(C)(C)C)cc3)coc2c1)S(C)(=O)=O` [KIN867], the pIC50 in assay [1] is 8.15; in the assay on DNV type 2 strain, 6.52.
As to `CS(=O)(=O)Oc1ccc2c(=O)c(-c3ccc(OCC4CC4)cc3)coc2c1` [KIN371], in assay [1], the “viral infection of 293 cells (decrease in foci, dose dependence)” value is listed as “dose-dependent decreases in viral infection” and the pIC50 is 6.81. In the assay on DNV type 2 strain, this molecule showed a pIC50 of less than 5.30.
Taken in the same sequence, the figures for `O=c1c(-c2ccc(OC(F)(F)F)cc2)coc2cc(OC(F)F)ccc12` [KIN299] were “dose-dependent decreases in viral infection”, 6.15 and less than 5.30.
In the case of `CC(C)(C)c1ccc(-c2coc3cc(OCCO)ccc3c2=O)cc1` [KIN851], the pIC50 in assay [1] was 6.38; in the assay on DNV type 2 strain, 5.93.
For `CC(=O)N1CCN(CCOc2ccc3c(=O)c(-c4ccc(Br)cc4)coc3c2)CC1` [KIN844], in that order: 8.70 and 6.50.
`CS(=O)(=O)Oc1ccc2c(=O)c(-c3ccc(NS(=O)(=O)N4CCCCC4)cc3)coc2c1` [KIN308]: in assay [1], the “antiviral activity compared with KIN101 (viral titer)” value was “improved on this antiviral activity” and the pIC50 is 6.97. The molecule further showed a negative-log IC50 (pIC50) in the assay on DNV type 2 strain of 5.38.
Take `CC(=O)N1CCN(CCOc2ccc3c(=O)c(-c4ccc(OC(F)(F)F)cc4)coc3c2)CC1` [KIN814]: the pIC50 was 7.21 in assay [1] and 6.73 in the assay on DNV type 2 strain.
Taken in the same sequence, the figures for `O=c1c(-c2ccc(OC(F)(F)F)cc2)coc2cc(OCCN3CCOCC3)ccc12` [KIN824] were 7.12 and 6.66.
As to `CN(c1ccc(-c2coc3cc(OS(C)(=O)=O)ccc3c2=O)cc1)S(C)(=O)=O` [KIN291], the “antiviral activity compared with KIN101 (viral titer)” value in assay [1] was “improved on this antiviral activity”.
In the case of `CS(=O)(=O)Oc1ccc2c(=O)c(-c3ccc(OCC4CCCOC4)cc3)coc2c1` (centres unmarked) [KIN850], the pIC50 was 8.70 in assay [1] and 5.87 in the assay on DNV type 2 strain.
In the case of `CS(=O)(=O)Oc1ccc2c(=O)c(C3CCCC3)coc2c1` [KIN282], the “antiviral activity compared with KIN101 (viral titer)” value in assay [1] is “improved on this antiviral activity”.
As to `O=C(COc1ccc2c(=O)c(-c3ccc(OC(F)(F)F)cc3)coc2c1)N1CCOCC1` [KIN290], the negative-log IC50 (pIC50) in assay [1] was 5.82; in the assay with DNV type 2 strain it was 5.51.
Taken in the same sequence, the figures for `CC(C)(C)c1ccc(-c2coc3cc(OS(C)(=O)=O)ccc3c2=O)cc1` [KIN269] were 6.84 and 6.27.
Regarding `CN1CCN(CCOc2ccc3c(=O)c(-c4ccc(OC(F)(F)F)cc4)coc3c2)CC1` [KIN823], the pIC50 in assay [1] was 6.82; with DNV type 2 strain it was 6.43.
Taken in the same sequence, the figures for `CCN(c1ccc2c(=O)c(-c3ccc(C(C)(C)C)cc3)coc2c1)S(C)(=O)=O` [KIN866] were 7.57 and 6.29.
Taken in the same sequence, the figures for `O=C(COc1ccc2c(=O)c(-c3ccc(Br)cc3)coc2c1)N1CCOCC1` [KIN238] were 5.92 and 5.93.

For orientation: pIC50 means the IC50 on a negative log10 scale, so that one unit is a factor of ten.

These data come from patent US20160122312A1, “ANTI-VIRAL COMPOUNDS, PHARMACEUTICAL COMPOSITIONS AND METHODS OF USE THEREOF” (KINETA, INC., priority 2013, published 2016).
